Experimental data: ChEMBL document CHEMBL5634158, “From garden to lab: C-3 chemical modifications of tomatidine unveil broad-spectrum ATP synthase inhibitors to combat bacterial resistance” (Eur J Med Chem, 2023)
Converted amounts (≈) assume the structure as drawn.

Key:
Escherichia coli [1] = assay: Antibacterial activity against Escherichia coli ATCC 25922 assessed as reduction in microbial growth incubated for 20 hrs under aerobic condition by CLSI based broth microdilution method; format: functional
Staphylococcus aureus [2] = assay: Antibacterial activity against Staphylococcus aureus ATCC 29213 assessed as reduction in microbial growth incubated for 20 hrs under aerobic condition by CLSI based broth microdilution method; format: functional
Escherichia coli [3] = assay: Antibacterial activity against Escherichia coli MC4100 assessed as reduction in bacterial growth by CLSI based broth microdilution method; format: functional
Escherichia coli [4] = assay: Antibacterial activity against Escherichia coli MC4100 harbouring acrAB mutant assessed as reduction in bacterial growth by CLSI based broth microdilution method; format: functional
Escherichia coli [5] = assay: Antibacterial activity against Escherichia coli MC4100 harbouring lptD mutant assessed as reduction in bacterial growth by CLSI based broth microdilution method; format: functional
[6] = Inhibition of Escherichia coli ATCC 25922 ATP synthase activity preincubated for 30 mins followed by NADH/ADP addition and measured after 60 mins by luciferin/luciferase luminescence assay
Staphylococcus aureus [7] = assay: Antibacterial activity against Staphylococcus aureus ATCC 29213 hemB SCV assessed as reduction in microbial growth incubated for 20 hrs under aerobic condition by CLSI based broth microdilution method; format: functional
[8] = Inhibition of Staphylococcus aureus ATCC 29213 ATP synthase activity preincubated for 30 mins followed by NADH/ADP addition and measured after 60 mins by luciferin/luciferase luminescence assay
Escherichia coli [9] = assay: Antibacterial activity against Escherichia coli ATCC 25922 assessed as fold decrease in MIC for 20 hrs under aerobic condition by CLSI based broth microdilution method; format: functional
Staphylococcus aureus [10] = assay: Antibacterial activity against antibiotic susceptible Staphylococcus aureus ATCC 29213 assessed as reduction in microbial growth incubated for 20 hrs under aerobic condition by CLSI based broth microdilution method; format: functional
Staphylococcus aureus [11] = assay: Antibacterial activity against antibiotic susceptible Staphylococcus aureus ATCC 29213 hemB SCV assessed as reduction in microbial growth incubated for 20 hrs under aerobic condition by CLSI based broth microdilution method; format: functional
Staphylococcus aureus [12] = assay: Antibacterial activity against antibiotic resistant methicillin resistant Staphylococcus aureus ATCC BAA-41/USA-100 assessed as reduction in microbial growth incubated for 20 hrs under aerobic condition by CLSI based broth microdilution method; format: functional
Staphylococcus aureus [13] = assay: Antibacterial activity against antibiotic resitant/methicillin resistant Staphylococcus aureus ATCC 700699/Mu50 assessed as reduction in microbial growth incubated for 20 hrs under aerobic condition by CLSI based broth microdilution method; format: functional
Escherichia coli [14] = assay: Antibacterial activity against antibiotic susceptible Escherichia coli ATCC 25922 assessed as reduction in microbial growth incubated for 20 hrs under aerobic condition by CLSI based broth microdilution method; format: functional
Escherichia coli [15] = assay: Antibacterial activity against NDM1-producing carbapenem/antibiotic resistant Escherichia coli ATCC BAA-2471 assessed as reduction in microbial growth incubated for 20 hrs under aerobic condition by CLSI based broth microdilution method; format: functional
Escherichia coli [16] = assay: Antibacterial activity against antibiotic susceptible /colistin resistant Escherichia coli harboring mcr-1 gene assessed as reduction in microbial growth incubated for 20 hrs under aerobic condition by CLSI based broth microdilution method; format: functional
Escherichia coli [17] = assay: microbe, parasite or virus in culture; details: 20 h
Description: Antibacterial activity against antibiotic resistant Escherichia coli producing extended spectrum beta-lactamase KPC assessed as reduction in microbial growth incubated for 20 hrs under aerobic condition by CLSI based broth microdilution method

Compound	MIC (Escherichia coli [1]) [µg/mL]	MIC (Staphylococcus aureus [2]) [µg/mL]	MIC (Escherichia coli [3]) [µg/mL]	MIC (Escherichia coli [4]) [µg/mL]	MIC (Escherichia coli [5]) [µg/mL]	IC50 [6] [nM]	MIC (Staphylococcus aureus [7]) [µg/mL]	further results
C[C@H]1CC[C@]2(NC1)O[C@H]1C[C@H]3[C@@H]4CC[C@H]5CC(NC[C@@H](N)Cc6ccc(-c7ccccc7)cc6)CC[C@]5(C)[C@H]4CC[C@]3(C)[C@H]1[C@@H]2C (mixture of isomers)	8	2	8	8	2	3400	–	–
C[C@H]1CC[C@]2(NC1)O[C@H]1C[C@H]3[C@@H]4CC[C@H]5CC(NCCN6CCCC6)CC[C@]5(C)[C@H]4CC[C@]3(C)[C@H]1[C@@H]2C (mixture of isomers)	64	–	64	8	0.5	900	–	–
C[C@H]1CC[C@]2(NC1)O[C@H]1C[C@H]3[C@@H]4CC[C@H]5CC(NC[C@@H](N)Cc6ccc(C(F)(F)F)cc6)CC[C@]5(C)[C@H]4CC[C@]3(C)[C@H]1[C@@H]2C (mixture of isomers)	8	2	–	–	–	–	1	–
C[C@H]1CC[C@]2(NC1)O[C@H]1C[C@H]3[C@@H]4CC[C@H]5CC(NC[C@@H](N)Cc6ccc(F)cc6)CC[C@]5(C)[C@H]4CC[C@]3(C)[C@H]1[C@@H]2C (mixture of isomers)	32	4	–	–	–	–	≤ 0.25	–
O=[N+]([O-])c1ccc(Cl)c2nonc12	–	–	–	–	–	3940	–	IC50 [8]: 1700 nM
C[C@H]1CC[C@]2(NC1)O[C@H]1C[C@H]3[C@@H]4CC[C@H]5CC(NC[C@@H](N)Cc6ccc7ccccc7c6)CC[C@]5(C)[C@H]4CC[C@]3(C)[C@H]1[C@@H]2C (mixture of isomers)	8	1	16	4	8	2000	–	–
C[C@H]1CC[C@]2(NC1)O[C@H]1C[C@H]3[C@@H]4CC[C@H]5CC(NC[C@@H](N)Cc6ccc(Br)cc6)CC[C@]5(C)[C@H]4CC[C@]3(C)[C@H]1[C@@H]2C (stereo partly specified)	8	2	–	–	–	–	≤ 0.25	fold change (FC) (Escherichia coli [9]): 2
C[C@H]1CC[C@]2(NC1)O[C@H]1C[C@H]3[C@@H]4CC[C@H]5CC(NC[C@@H](N)Cc6ccccc6)CC[C@]5(C)[C@H]4CC[C@]3(C)[C@H]1[C@@H]2C (mixture of isomers)	32	4	32	8	4	1300	–	–
C[C@H]1CC[C@]2(NC1)O[C@H]1C[C@H]3[C@@H]4CC[C@H]5CC(NC[C@@H](N)Cc6ccccc6C(F)(F)F)CC[C@]5(C)[C@H]4CC[C@]3(C)[C@H]1[C@@H]2C (mixture of isomers)	32	2	–	–	–	–	0.5	–
C[C@H]1CC[C@]2(NC1)O[C@H]1C[C@H]3[C@@H]4CC[C@H]5CC(NC[C@@H](N)Cc6ccc(I)cc6)CC[C@]5(C)[C@H]4CC[C@]3(C)[C@H]1[C@@H]2C (mixture of isomers)	4	2	8	4	2	1500	≤ 0.25	fold change (FC) (Escherichia coli [9]): 2
C[C@H]1CC[C@]2(NC1)O[C@H]1C[C@H]3[C@@H]4CC[C@H]5CC(NCCN)CC[C@]5(C)[C@H]4CC[C@]3(C)[C@H]1[C@@H]2C (stereo partly specified)	32	8	16 (≈ 35 µM)	8 (≈ 17.5 µM)	0.5 (≈ 1.09 µM)	1300	0.006	–
C[C@H]1CC[C@]2(NC1)O[C@H]1C[C@H]3[C@@H]4CC[C@H]5CC(NC[C@@H](N)Cc6cccc(C(F)(F)F)c6)CC[C@]5(C)[C@H]4CC[C@]3(C)[C@H]1[C@@H]2C (mixture of isomers)	8	5	–	–	–	–	2	–
C[C@H]1CC[C@]2(NC1)O[C@H]1C[C@H]3[C@@H]4CC[C@H]5CC(N[C@@H]6CCNC6)CC[C@]5(C)[C@H]4CC[C@]3(C)[C@H]1[C@@H]2C (mixture of isomers)	64	32	64	32	32	4700	–	–
C[C@H]1CC[C@]2(NC1)O[C@H]1C[C@H]3[C@@H]4CC[C@H]5CC(NC[C@@H](N)Cc6c[nH]c7ccccc67)CC[C@]5(C)[C@H]4CC[C@]3(C)[C@H]1[C@@H]2C (mixture of isomers)	8	2	16	4	2	1900	–	–
C[C@H]1CC[C@]2(NC1)O[C@H]1C[C@H]3[C@@H]4CC[C@H]5CC(NC[C@@H](N)Cc6ccncc6)CC[C@]5(C)[C@H]4CC[C@]3(C)[C@H]1[C@@H]2C (mixture of isomers)	> 128	16	> 128	32	16	1500	–	–
C[C@H]1CC[C@]2(NC1)O[C@H]1C[C@H]3[C@@H]4CC[C@H]5CC(NC[C@@H](N)Cc6ccc(Cl)cc6)CC[C@]5(C)[C@H]4CC[C@]3(C)[C@H]1[C@@H]2C (mixture of isomers)	8	2	–	–	–	–	≤ 0.25	fold change (FC) (Escherichia coli [9]): 2
Cc1onc(-c2ccccc2)c1C(=O)N[C@@H]1C(=O)N2[C@@H]1SC(C)(C)[C@@H]2C(=O)O [OXACILLIN]	–	–	–	–	–	–	–	MIC (Staphylococcus aureus [10]): 0.24 µg/mL; MIC (Staphylococcus aureus [11]): 0.12 µg/mL; MIC (Staphylococcus aureus [12]): > 128 µg/mL; MIC (Staphylococcus aureus [13]): > 128 µg/mL
C[C@@H](O)[C@H]1C(=O)N2C(C(=O)O)=C(S[C@@H]3CN[C@H](C(=O)N(C)C)C3)[C@H](C)[C@H]12 [MEROPENEM]	–	–	–	–	–	–	–	MIC (Staphylococcus aureus [10]): 0.12 µg/mL; MIC (Staphylococcus aureus [11]): 0.06 µg/mL; MIC (Staphylococcus aureus [12]): > 16 µg/mL; MIC (Staphylococcus aureus [13]): > 16 µg/mL; MIC (Escherichia coli [14]): ≤ 0.03 µg/mL; MIC (Escherichia coli [15]): > 16 µg/mL; MIC (Escherichia coli [16]): ≤ 0.03 µg/mL; MIC (Escherichia coli [17]): 8 µg/mL (≈ 20.9 µM)
C[C@H]1CC[C@]2(NC1)O[C@H]1C[C@H]3[C@@H]4CC[C@H]5CC(NCCN6CCOCC6)CC[C@]5(C)[C@H]4CC[C@]3(C)[C@H]1[C@@H]2C (mixture of isomers)	> 128	64	> 128	128	64	6500	–	–
C[C@H]1CC[C@]2(NC1)O[C@H]1C[C@H]3[C@@H]4CC[C@H]5CC(NC[C@@H](O)CO)CC[C@]5(C)[C@H]4CC[C@]3(C)[C@H]1[C@@H]2C (mixture of isomers)	> 128	64	–	–	–	–	–	–
C[C@H]1CC[C@]2(NC1)O[C@H]1C[C@H]3[C@@H]4CC[C@H]5CC(NC[C@@H](N)Cc6ccc(Cl)cc6Cl)CC[C@]5(C)[C@H]4CC[C@]3(C)[C@H]1[C@@H]2C (mixture of isomers)	8	2	–	–	–	–	≤ 0.25	–
